{"source": "patent US11859229B2", "about": "“Polyvinyl alcohol-degrading enzyme and process for producing the same” (Hayashibara Co., Ltd., priority 2017, dated 2024)", "assay_type_in_all_cases": "biochemical, Pseudomonas sp. VT1B strain (NBRC110478)", "key": {"PVA-A [1]": {"test_system": "PVA-A", "assay": "Substrate specificity of PVA-oxidizing activity of PVA-A", "details": "substrate 1% (v/v) or saturated; activity against PVA = 100%", "procedure": "(§1) To 0.5 mL of a substrate solution prepared by dissolving PVA (Reagent grade polyvinyl alcohol, polymerization degree: 2,000, Nacalai Tesque Inc., Kyoto, Japan) into 100 mM sodium phosphate buffer (pH 7.0) to give a concentration of 2% (w/v), 15 µL of 2% (w/v) of sodium azide solution was added, and then 0.5 mL of an enzyme solution is further added and reacted with shaking at 27° C. for 60 min. After the 60 min-reaction, the reaction was stopped by mixing 0.32 mL of the reaction mixture to 0.8 mL of a titanium reagent, and the yellow color, produced by reacting hydrogen peroxide formed by the enzyme reaction and the titanium reagent, was measured by measuring the absorbance at 410 nm (A410) as an index. Separately, the enzyme solution was added to the substrate solution, and the resulting mixture is immediately mixed with the titanium reagent. The resulting mixture was similarly measured its color and the value was used as the value at the reaction zero minutes. Then, the amount of the formed hydrogen peroxide is determined and the PVA-oxidizing activity is calculated based on the following formula. It is known that the absorbance at 410 nm (A410) increases by “1” when 3.65 […]mole/mL of hydrogen peroxide is formed. Therefore, in the following Formula 1, the coefficient of “3.65” has been multiplied. One unit of the PVA-oxidizing activity is defined as the amount of enzyme that forms 1 […]mole of hydrogen peroxide per min under the above conditions. Titanium reagent is prepared by diluting 5% titanium sulfate (IV) solution, commercialized by Nacalai Tesque Inc., Kyoto, Japan, 25-fold with 10% (w/w) sulfuric acid.\n(§2) The substrate specificity of PVA-oxidizing activity was investigated by allowing PVA-A and PVA-B, the purified enzyme preparations obtained by the method in Experiment 2, to act on various secondary alcohols, primary alcohols and the like as substrates. In other words, the PVA-oxidizing activity of the enzymes was measured for primary alcohols having different chain length (methanol, ethanol, propanol, butanol, pentanol, hexanol, heptanol, and decanol), secondary alcohols (2-propanol, 2-pentanol, 2-hexanol, 4-heptanol, 2-octanol, 4-decanol, and 2, 4-pentanediol), and a tertiary alcohol (tert-butanol)."}, "PVA-B [2]": {"test_system": "PVA-B", "assay": "Substrate specificity of PVA-oxidizing activity of PVA-B", "details": "substrate 1% (v/v) or saturated; activity against PVA = 100%", "procedure": "as §1, §2"}, "PVA-B [3]": {"test_system": "PVA-B", "assay": "Effects of various metal salts on PVA-oxidizing activity of PVA-B", "procedure": "as §1\n(§3) Using the purified enzyme preparations of PVA-A and PVA-B, obtained by the method of Experiment 2, effects of various metal salts on the enzyme activity were investigated according to the assay of the PVA-oxidizing activity as an index in the presence of 1 mM metal salts."}, "PVA-A [4]": {"test_system": "PVA-A", "assay": "Effects of various metal salts on PVA-oxidizing activity of PVA-A", "procedure": "as §1, §3"}, "PVA-A and PVA-B": {"test_system": "PVA-A and PVA-B", "assay": "Effects of metal salts on PVA-oxidizing activity, summary for both enzymes", "details": "1 mM, in words", "procedure": "as §3"}, "[5]": {"details": "PVA-oxidizing activity in the presence of 1 mM metal salts, None = 100"}}, "data": [{"compound": "CCCCCCO", "note": "[Hexanol]", "values": [{"measurement": "Relative activity (%) PVA-A", "setting": "PVA-A [1]", "value": 0, "unit": "%"}, {"measurement": "Relative activity (%) PVA-B", "setting": "PVA-B [2]", "value": 1, "unit": "%"}]}, {"compound": "CC(O)CC(C)O", "note": "(stereo not shown) [2,4-Pentanediol]", "values": [{"measurement": "Relative activity (%) PVA-A", "setting": "PVA-A [1]", "value": 0, "unit": "%"}, {"measurement": "Relative activity (%) PVA-B", "setting": "PVA-B [2]", "value": 0, "unit": "%"}]}, {"compound": "RbCl2", "values": [{"measurement": "Relative activity (%) PVA-B", "setting": "PVA-B [3]; [5]", "value": 99, "unit": "%"}, {"measurement": "Relative activity (%) PVA-A", "setting": "PVA-A [4]; [5]", "value": 91, "unit": "%"}]}, {"compound": "CCCC(O)CCC", "note": "[4-Heptanol]", "values": [{"measurement": "Relative activity (%) PVA-A", "setting": "PVA-A [1]", "value": 21, "unit": "%"}, {"measurement": "Relative activity (%) PVA-B", "setting": "PVA-B [2]", "value": 12, "unit": "%"}]}, {"compound": "CCCCCCCO", "note": "[Heptanol]", "values": [{"measurement": "Relative activity (%) PVA-A", "setting": "PVA-A [1]", "value": 0, "unit": "%"}, {"measurement": "Relative activity (%) PVA-B", "setting": "PVA-B [2]", "value": 1, "unit": "%"}]}, {"compound": "[Cl][Fe]([Cl])[Cl]", "note": "[FeCl3]", "values": [{"measurement": "Relative activity (%) PVA-B", "setting": "PVA-B [3]; [5]", "value": 19, "unit": "%"}, {"measurement": "Relative activity (%) PVA-A", "setting": "PVA-A [4]; [5]", "value": 29, "unit": "%"}, {"measurement": "Effect on PVA-oxidizing activity", "setting": "PVA-A and PVA-B", "value": "remarkably inhibited"}]}, {"compound": "O=C(O)CN(CCN(CC(=O)O)CC(=O)O)CC(=O)O", "note": "[EDTA]", "values": [{"measurement": "Relative activity (%) PVA-B", "setting": "PVA-B [3]; [5]", "value": 45, "unit": "%"}, {"measurement": "Relative activity (%) PVA-A", "setting": "PVA-A [4]; [5]", "value": 56, "unit": "%"}, {"measurement": "Effect on PVA-oxidizing activity", "setting": "PVA-A and PVA-B", "value": "also inhibited"}]}, {"compound": "CC(C)(C)O", "note": "[tert-Butanol]", "values": [{"measurement": "Relative activity (%) PVA-A", "setting": "PVA-A [1]", "value": 0, "unit": "%"}, {"measurement": "Relative activity (%) PVA-B", "setting": "PVA-B [2]", "value": 1, "unit": "%"}]}, {"compound": "CC(C)O", "note": "[2-Propanol]", "values": [{"measurement": "Relative activity (%) PVA-A", "setting": "PVA-A [1]", "value": 0, "unit": "%"}, {"measurement": "Relative activity (%) PVA-B", "setting": "PVA-B [2]", "value": 1, "unit": "%"}]}, {"compound": "CCCCCCC(C)O", "note": "(stereo not shown) [2-Octanol]", "values": [{"measurement": "Relative activity (%) PVA-A", "setting": "PVA-A [1]", "value": 3, "unit": "%"}, {"measurement": "Relative activity (%) PVA-B", "setting": "PVA-B [2]", "value": 6, "unit": "%"}]}, {"compound": "CCO", "note": "[Ethanol]", "values": [{"measurement": "Relative activity (%) PVA-A", "setting": "PVA-A [1]", "value": 0, "unit": "%"}, {"measurement": "Relative activity (%) PVA-B", "setting": "PVA-B [2]", "value": 0, "unit": "%"}]}, {"compound": "CCCC(C)O", "note": "(stereo not shown) [2-Pentanol]", "values": [{"measurement": "Relative activity (%) PVA-A", "setting": "PVA-A [1]", "value": 2, "unit": "%"}, {"measurement": "Relative activity (%) PVA-B", "setting": "PVA-B [2]", "value": 5, "unit": "%"}]}, {"compound": "CCCCC(C)O", "note": "(stereo not shown) [2-Hexanol]", "values": [{"measurement": "Relative activity (%) PVA-A", "setting": "PVA-A [1]", "value": 5, "unit": "%"}, {"measurement": "Relative activity (%) PVA-B", "setting": "PVA-B [2]", "value": 8, "unit": "%"}]}, {"compound": "[Cl-].[K+]", "note": "[KCl]", "values": [{"measurement": "Relative activity (%) PVA-B", "setting": "PVA-B [3]; [5]", "value": 116, "unit": "%"}, {"measurement": "Relative activity (%) PVA-A", "setting": "PVA-A [4]; [5]", "value": 93, "unit": "%"}]}, {"compound": "[Cl-].[Na+]", "note": "[NaCl]", "values": [{"measurement": "Relative activity (%) PVA-B", "setting": "PVA-B [3]", "value": 106, "unit": "%"}, {"measurement": "Relative activity (%) PVA-A", "setting": "PVA-A [4]", "value": 94, "unit": "%"}]}, {"compound": "[Cl][Hg][Cl]", "note": "[HgCl2]", "values": [{"measurement": "Relative activity (%) PVA-B", "setting": "PVA-B [3]; [5]", "value": 4, "unit": "%"}, {"measurement": "Relative activity (%) PVA-A", "setting": "PVA-A [4]; [5]", "value": 22, "unit": "%"}, {"measurement": "Effect on PVA-oxidizing activity", "setting": "PVA-A and PVA-B", "value": "remarkably inhibited"}]}, {"compound": "CCCO", "note": "[Propanol]", "values": [{"measurement": "Relative activity (%) PVA-A", "setting": "PVA-A [1]", "value": 0, "unit": "%"}, {"measurement": "Relative activity (%) PVA-B", "setting": "PVA-B [2]", "value": 0, "unit": "%"}]}, {"compound": "CO", "note": "[Methanol]", "values": [{"measurement": "Relative activity (%) PVA-A", "setting": "PVA-A [1]", "value": 0, "unit": "%"}, {"measurement": "Relative activity (%) PVA-B", "setting": "PVA-B [2]", "value": 0, "unit": "%"}]}, {"compound": "[Cl][Sn][Cl]", "note": "[SnCl2]", "values": [{"measurement": "Relative activity (%) PVA-B", "setting": "PVA-B [3]; [5]", "value": 102, "unit": "%"}, {"measurement": "Relative activity (%) PVA-A", "setting": "PVA-A [4]; [5]", "value": 78, "unit": "%"}]}, {"compound": "CCCCCCCCCCO", "note": "[Decanol]", "values": [{"measurement": "Relative activity (%) PVA-A", "setting": "PVA-A [1]", "value": 0, "unit": "%"}, {"measurement": "Relative activity (%) PVA-B", "setting": "PVA-B [2]", "value": 0, "unit": "%"}]}, {"compound": "CCCCCCC(O)CCC", "note": "(stereo not shown) [4-Decanol]", "values": [{"measurement": "Relative activity (%) PVA-A", "setting": "PVA-A [1]", "value": 3, "unit": "%"}, {"measurement": "Relative activity (%) PVA-B", "setting": "PVA-B [2]", "value": 1, "unit": "%"}]}, {"compound": "[Cl-].[Cl-].[Sr+2]", "note": "[SrCl2]", "values": [{"measurement": "Relative activity (%) PVA-B", "setting": "PVA-B [3]; [5]", "value": 101, "unit": "%"}, {"measurement": "Relative activity (%) PVA-A", "setting": "PVA-A [4]; [5]", "value": 99, "unit": "%"}]}, {"compound": "[Cl-].[Cl-].[Mg+2]", "note": "[MgCl2]", "values": [{"measurement": "Relative activity (%) PVA-B", "setting": "PVA-B [3]; [5]", "value": 104, "unit": "%"}, {"measurement": "Relative activity (%) PVA-A", "setting": "PVA-A [4]; [5]", "value": 98, "unit": "%"}]}, {"compound": "[Cl][Al]([Cl])[Cl]", "note": "[AlCl3]", "values": [{"measurement": "Relative activity (%) PVA-B", "setting": "PVA-B [3]; [5]", "value": 63, "unit": "%"}, {"measurement": "Relative activity (%) PVA-A", "setting": "PVA-A [4]; [5]", "value": 91, "unit": "%"}]}, {"compound": "Butanol", "values": [{"measurement": "Relative activity (%) PVA-A", "setting": "PVA-A [1]", "value": 0, "unit": "%"}, {"measurement": "Relative activity (%) PVA-B", "setting": "PVA-B [2]", "value": 0, "unit": "%"}]}, {"compound": "CCCCCO", "note": "[Pentanol]", "values": [{"measurement": "Relative activity (%) PVA-A", "setting": "PVA-A [1]", "value": 0, "unit": "%"}, {"measurement": "Relative activity (%) PVA-B", "setting": "PVA-B [2]", "value": 0, "unit": "%"}]}, {"compound": "[Ca+2].[Cl-].[Cl-]", "note": "[CaCl2]", "values": [{"measurement": "Relative activity (%) PVA-B", "setting": "PVA-B [3]; [5]", "value": 98, "unit": "%"}, {"measurement": "Relative activity (%) PVA-A", "setting": "PVA-A [4]; [5]", "value": 98, "unit": "%"}]}, {"compound": "[Cl][Ni][Cl]", "note": "[NiCl2]", "values": [{"measurement": "Relative activity (%) PVA-B", "setting": "PVA-B [3]; [5]", "value": 76, "unit": "%"}, {"measurement": "Relative activity (%) PVA-A", "setting": "PVA-A [4]; [5]", "value": 91, "unit": "%"}]}, {"compound": "[Cl][Mn][Cl]", "note": "[MnCl2]", "values": [{"measurement": "Relative activity (%) PVA-B", "setting": "PVA-B [3]; [5]", "value": 87, "unit": "%"}, {"measurement": "Relative activity (%) PVA-A", "setting": "PVA-A [4]; [5]", "value": 96, "unit": "%"}]}]}
